Assay results taken from the SangsterLogP compilation.

What was measured:
[1] = method code SF-HPLC, from DOI: 10.1080/10826079708014133; conditions: pH 11.0

logD [1]	logP	SMILES
2.27		CCc1ccc(OCC2CN=C(N)O2)cc1 (configuration not stated)
	3.69	CCC(C)(C)c1ccc(OCC2CN=C(N)O2)cc1 (configuration not stated)
2.1		Cc1ccc(OCC2CN=C(N)O2)cc1C (configuration not stated)
2.25		Cc1cccc(OCC2CN=C(N)O2)c1C (configuration not stated)
2		Cc1cccc(C)c1OCC1CN=C(N)O1 (configuration not stated)
	3.05	NC1=NCC(COc2ccccc2Cc2ccccc2)O1 (configuration not stated)
2.8		NC1=NCC(COc2ccc(-c3ccccc3)cc2)O1 (configuration not stated)
1.75		Cc1cccc(OCC2CN=C(N)O2)c1 (configuration not stated)

SMILES	logD [1]	logP
NC1=NCC(COc2cccc(C(F)(F)F)c2)O1 (configuration not stated)	2.35	
NC1=NCC(COc2cccc(Cl)c2)O1 (configuration not stated)	2.09	
Cc1ccc(OCC2CN=C(N)O2)c(C)c1 (configuration not stated)	2.23	
Cc1ccc(C)c(OCC2CN=C(N)O2)c1 (configuration not stated)	2.29	
